These results are taken from ChEMBL document CHEMBL5728508, “Inhibitors of lysine specific demethylase-1” (2021).

This assay deals with Lysine-specific histone demethylase 1A (Homo sapiens, UniProt O60341). In words: In Vitro Enzyme Inhibition Assay: The enzymatic assay of LSD1 activity is based on Time Resolved-Fluorescence Resonance Energy Transfer (TR-FRET) detection. […] Plates were read by EnVision Multilabel Reader in TR-FRET mode (excitation at 320 nm, emission at 615 nm and 665 nm) after 1 hour incubation at room temperature. For orientation: In TR-FRET formats the signal depends on donor and acceptor labels being close together.

In general, IC50 refers to the point on the concentration scale where inhibition reaches its midpoint. A higher IC50 goes with lower potency. As for `CCn1c(-c2ccc(OC)cc2)c(-c2ccc(C#N)c(F)c2)cc(N2CCC(N)CC2)c1=O`, the IC50 was under 0.1 µM.
